The values that follow come from article PMC9181698 (International Journal of Molecular Sciences, 2022).

In series [1] the target is T1, ACE2–RBD interaction (wt SARS-CoV-2 spike protein RBD-Fc / His-tagged hACE2) (Severe acute respiratory syndrome coronavirus 2, UniProt P0DTC2).
T1 construct: SARS-CoV-2 spike protein RBD-Fc fusion protein; Fc fusion; purchased Sino Biological
Put plainly: SARS-CoV-2 spike protein RBD–hACE2 inhibition assay (ELISA), wt RBD. Format: biochemical. Particulars: individual helices of LCB1. In general terms: In an ELISA, binding on a coated surface is turned into a signal by an enzyme label.

The subject of series [2] is pepsin. Put plainly: pepsin, Ph.Eur. grade, Carl Roth GmbH, diluted to 5.5 µg/mL in TFA 10 mM. Particulars: 37 °C, up to 60 min.
Series [3] concerns neutrophil elastase. Put plainly: neutrophil elastase, 20–22 U/mg, Abcam, diluted to 5.5 µg/mL in Tris buffer 0.1 M + NaCl 0.5 M pH 7.8. Particulars: 37 °C, up to 60 min.
The target in series [4] is T2, neutrophil elastase (Homo sapiens, UniProt P08246).
T2 construct: purchased Abcam
T2 sequence (P08246 30-267): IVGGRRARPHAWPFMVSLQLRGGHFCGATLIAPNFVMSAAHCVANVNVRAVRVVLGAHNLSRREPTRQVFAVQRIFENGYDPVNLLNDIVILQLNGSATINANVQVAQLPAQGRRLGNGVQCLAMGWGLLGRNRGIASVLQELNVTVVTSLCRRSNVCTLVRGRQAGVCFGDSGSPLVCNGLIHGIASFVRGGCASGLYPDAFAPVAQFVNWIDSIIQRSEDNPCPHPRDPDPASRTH
The class given is in vitro ADME. Particulars: neutrophil elastase 5.5 µg/mL in Tris buffer 0.1 M + NaCl 0.5 M pH 7.8, enzyme pre-incubated 15 min at 37 °C, peptide 100 µM, 60 min, LC-MS (Figure 4C,D). On the procedure:
(§1) The enzymes (pepsin, Ph.Eur. grade, Carl Roth GmbH, and neutrophil elastase, 20–22 U/mg, Abcam, respectively) were diluted to 5.5 µg/mL in TFA 10 mM (pepsin) or Tris buffer 0.1 M + NaCl 0.5 M pH 7.8 (neutrophil elastase) and pre-incubated for 15 min at 37 °C. Peptides were added at 100 µM and incubated at 37 °C. A sample of 40 µL was taken after 60 min of incubation and the reaction was stopped by adding 5 µL sodium carbonate solution (1 M, pepsin) and 5 µL TFA (neutrophil elastase), respectively. After 10 min, 60 µL acetonitrile/water 50:50 containing 1% TFA were added, and the resulting solution was analyzed by LC-MS (conditions: Phenomenex Kinetex 2.6 μm C18 100 Å column, 50 × 2.1 mm, flow rate 0.55 mL/min, gradient of acetonitrile in H2O (both containing 0.1% TFA, 20–60% over 20 min)).

In series [5] the target is T3, pepsin (Sus scrofa, UniProt P00791).
T3 construct: purchased Carl Roth GmbH
T3 sequence (P00791 60-385): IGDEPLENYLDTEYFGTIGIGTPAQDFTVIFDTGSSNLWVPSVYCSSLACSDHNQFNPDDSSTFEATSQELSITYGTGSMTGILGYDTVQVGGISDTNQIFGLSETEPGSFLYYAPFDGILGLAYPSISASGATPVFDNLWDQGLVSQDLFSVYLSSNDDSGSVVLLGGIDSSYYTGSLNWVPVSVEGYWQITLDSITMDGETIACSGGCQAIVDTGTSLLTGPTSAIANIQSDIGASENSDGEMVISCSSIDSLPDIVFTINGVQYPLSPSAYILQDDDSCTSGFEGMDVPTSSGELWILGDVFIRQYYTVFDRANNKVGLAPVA
The class given is in vitro ADME. To be noted: pepsin 5.5 µg/mL in TFA 10 mM, enzyme pre-incubated 15 min at 37 °C, peptide 100 µM, 60 min, LC-MS (Figure 4A,B). How it is done: as §1

“Also recorded” adds a separate entry of the source. Residues, ends and D or L forms follow the SMILES beside them.

Regarding `CC[C@H](C)[C@H](NC(=O)[C@H](Cc1c[nH]c2ccccc12)NC(=O)[C@H](CCC(=O)O)NC(=O)[C@H](CCCCN)NC(=O)[C@H](CC(=O)O)NC(=O)COCCOCCNC(=O)CCCC[C@@H]1SC[C@@H]2NC(=O)N[C@@H]21)C(=O)N[C@@H](CC(C)C)C(=O)N[C@@H](CCC(N)=O)C(=O)N[C@@H](CCCCN)C(=O)N[C@H](C(=O)N[C@@H](Cc1ccc(O)cc1)C(=O)N[C@@H](CCC(=O)O)C(=O)N[C@H](C(=O)N[C@@H](CCSC)C(=O)N[C@@H](CCCNC(=N)N)C(=O)N[C@@H](CC(C)C)C(=O)N[C@@H](CC(C)C)C(=O)N[C@@H](CC(=O)O)C(=O)N[C@@H](CCC(=O)O)C(=O)N[C@@H](CC(C)C)C(N)=O)[C@@H](C)CC)[C@@H](C)CC` [LW25.5] (HELM PEPTIDE1{[O=C1N[C@H]2[C@H](CS[C@H]2CCCCC(=O)[*:2])N1].[O=C(COCCOCCN[*:1])[*:2]].D.K.E.W.I.L.Q.K.I.Y.E.I.M.R.L.L.D.E.L.[am]}$$$$V2.0), in series [1], the “Inhibitory activity on the ACE2–RBD interaction (in words)” value is “completely inactive”.
On to “Biotin-Aoa-[^3 CEWILQKIYEIMRLLDELGHAEASMRVSDLIYEFMKKC]-NH2”, for which the results for the not cleaved entry with pepsin [2] and in the series with neutrophil elastase [3] were “largely stable towards pepsin for at least 60 min” and “still largely intact after 60 min exposure to the enzyme”, respectively.
Turning to “Biotin-Aoa-DKEWILQKIYEIMRLLDELGHAEASMRVSDLIYEF-NH2”, the cleaved bond result in the series on pepsin [2] is “L31-I32, 60 min”; in the series with neutrophil elastase [3], “A-S, 60 min; also recorded: S-M, 60 min”.
Turning to `CC[C@H](C)[C@@H]1NC(=O)[C@H](CC(C)C)NC(=O)[C@H](CC(=O)O)NC(=O)[C@H](CO)NC(=O)[C@H](C(C)C)NC(=O)[C@H](CCCNC(=N)N)NC(=O)[C@H](CCSC)NC(=O)[C@H](CO)NC(=O)[C@H](C)NC(=O)[C@H](CCC(=O)O)NC(=O)[C@H](C)NC(=O)[C@H](Cc2c[nH]cn2)NC(=O)CNC(=O)[C@H](CC(C)C)NC(=O)[C@H](CCC(=O)O)NC(=O)[C@H](CC(=O)O)NC(=O)[C@H](CC(C)C)NC(=O)[C@H](CC(C)C)NC(=O)[C@H](CCCNC(=N)N)NC(=O)[C@H](CCSC)NC(=O)[C@H]([C@@H](C)CC)NC(=O)[C@H](CCC(=O)O)NC(=O)[C@H](Cc2ccc(O)cc2)NC(=O)[C@H]([C@@H](C)CC)NC(=O)[C@H](CCCCN)NC(=O)[C@H](CCC(N)=O)NC(=O)[C@H](CC(C)C)NC(=O)[C@H]([C@@H](C)CC)NC(=O)[C@H](Cc2c[nH]c3ccccc23)NC(=O)[C@H](CCC(=O)O)NC(=O)[C@@H](NC(=O)COCCOCCNC(=O)CCCC[C@@H]2SC[C@@H]3NC(=O)N[C@@H]32)CSSC[C@@H](C(N)=O)NC(=O)[C@H](CCCCN)NC(=O)[C@H](CCCCN)NC(=O)[C@H](CCSC)NC(=O)[C@H](Cc2ccccc2)NC(=O)[C@H](CCC(=O)O)NC(=O)[C@H](Cc2ccc(O)cc2)NC1=O` [LW25.13], the “Stability towards neutrophil elastase (in words)” value on neutrophil elastase [4] was “still largely intact”. Moreover, at pepsin [5], the “Susceptibility to proteolytic degradation by pepsin (in words)” value is reported as “largely stable”.
Regarding `CC[C@H](C)[C@H](NC(=O)[C@H](CC(C)C)NC(=O)[C@H](CC(=O)O)NC(=O)[C@H](CO)NC(=O)[C@@H](NC(=O)[C@H](CCCNC(=N)N)NC(=O)[C@H](CCSC)NC(=O)[C@H](CO)NC(=O)[C@H](C)NC(=O)[C@H](CCC(=O)O)NC(=O)[C@H](C)NC(=O)[C@H](Cc1c[nH]cn1)NC(=O)CNC(=O)COCCOCCNC(=O)CCCC[C@@H]1SC[C@@H]2NC(=O)N[C@@H]21)C(C)C)C(=O)N[C@@H](Cc1ccc(O)cc1)C(=O)N[C@@H](CCC(=O)O)C(=O)N[C@@H](Cc1ccccc1)C(=O)N[C@@H](CCSC)C(=O)N[C@@H](CCCCN)C(=O)N[C@@H](CCCCN)C(=O)NCC(N)=O` [LW25.6] (HELM PEPTIDE1{[O=C1N[C@H]2[C@H](CS[C@H]2CCCCC(=O)[*:2])N1].[O=C(COCCOCCN[*:1])[*:2]].G.H.A.E.A.S.M.R.V.S.D.L.I.Y.E.F.M.K.K.G.[am]}$$$$V2.0), in series [1], the “Inhibitory activity on the ACE2–RBD interaction (in words)” value is “completely inactive”.
`CC[C@H](C)[C@H](NC(=O)[C@H](CC(C)C)NC(=O)[C@H](CC(=O)O)NC(=O)[C@H](CO)NC(=O)[C@@H](NC(=O)[C@H](CCCNC(=N)N)NC(=O)[C@H](CCSC)NC(=O)[C@H](CO)NC(=O)[C@H](C)NC(=O)[C@H](CCC(=O)O)NC(=O)[C@H](C)NC(=O)[C@H](Cc1c[nH]cn1)NC(=O)CNC(=O)[C@H](CC(C)C)NC(=O)[C@H](CCC(=O)O)NC(=O)[C@H](CC(=O)O)NC(=O)[C@H](CC(C)C)NC(=O)[C@H](CC(C)C)NC(=O)[C@H](CCCNC(=N)N)NC(=O)[C@H](CCSC)NC(=O)[C@@H](NC(=O)[C@H](CCC(=O)O)NC(=O)[C@H](Cc1ccc(O)cc1)NC(=O)[C@@H](NC(=O)[C@H](CCCCN)NC(=O)[C@H](CCC(N)=O)NC(=O)[C@H](CC(C)C)NC(=O)[C@@H](NC(=O)[C@H](Cc1c[nH]c2ccccc12)NC(=O)[C@H](CCC(=O)O)NC(=O)[C@H](CCCCN)NC(=O)[C@H](CC(=O)O)NC(=O)COCCOCCNC(=O)CCCC[C@@H]1SC[C@@H]2NC(=O)N[C@@H]21)[C@@H](C)CC)[C@@H](C)CC)[C@@H](C)CC)C(C)C)C(=O)N[C@@H](Cc1ccc(O)cc1)C(=O)N[C@@H](CCC(=O)O)C(=O)N[C@@H](Cc1ccccc1)C(N)=O` [LW32.4]: on neutrophil elastase [4], the “Stability towards neutrophil elastase (in words)” value is “rapidly hydrolyzed”. In addition, the “Susceptibility to proteolytic degradation by pepsin (in words)” value on pepsin [5] is given as “hydrolyzed only at position L31”.
